# Experimental data from patent EP3009422A1, “Photo-switchable sulfonylureas and their uses” (Ludwig-Maximilians-Universität München, priority 2014, dated 2016).
# How the values were obtained:
# isolated murine islets = test: Insulin secretion from isolated islets (static incubation, radioimmunoassay); type: cell-based, mouse
# Method: Insulin secretion was measured from 6 islets per well, incubated at 37 °C for 30 min in 0.5 ml of Krebs-HEPES-bicarbonate (KHB) solution (containing in mM: 130 NaCl, 3.6 KCl, 1.5 CaCl2, 0.5 MgSO4, 0.5 NaH2PO4, 2 NaHCO3, 10 HEPES, and 0.1 % (wt/vol) BSA, pH 7.4) containing the indicated glucose concentration and tolbutamide (100 µM), glimeperide (50 µM), diazoxide (250 µM) and JB253 (50 µM). Illumination (λ = 405 ± 20 nm and 485 ± 6 nm) was performed using a Fluostar Optima microplate reader (BMG Labtech) set to deliver 30 s of light every 2 min to the designated wells. Insulin concentrations were determined in duplicate using specific radioimmunoassay (EMD Millipore).
# islets = test: Cytotoxicity assay (calcein-AM / propidium iodide) in islets; type: cell-based; settings: 1 hr incubation, n = 28 islets from four animals
# Method: Islets were incubated with either DMSO or JB253 for 1 hr before staining with 3 µM of calcein-AM (live) and 2.5 µM of propidium iodide (dead). Absorbance/emission was detected at 491/525 nm and 561/620 nm for calcein and PI, respectively. The area of dead:live cells was calculated as a unitary ratio and the observer blinded to treatment identity.
# KATP channels = target: T1, KATP channels (Rattus norvegicus, UniProt Q09429); test: Whole cell patch clamp of HEK293t cells transfected with Kir6.2 and SUR1; type: cell-based; settings: for Difference (%) in current change between first and last switch / ΔI [pA] first switch / ΔI [pA] last switch: 400 nm; for reversal potential: n = 5 recordings; for % block: versus 500 µM tolbutamide in the same experiment, n = 3
# T1 construct: expressed in transfected cells; host or cells: HEK293t (Leibniz-Institut DSMZ: #305)
# Method: HEK293t cells (obtained from Leibniz-Institut DSMZ: #305) were incubated in Dulbecco's Modified Eagle Medium (DMEM) + 10% FBS and used for electrophysiological recordings 24-48 hrs following Lipofectamine transfection with plasmids encoding Kir6.2 (Genbank D50581), rat SUR1 (Genbank L40624) and GFP. Whole cell patch clamp experiments were performed using a standard electrophysiology setup equipped with a HEKA Patch Clamp EPC10 USB amplifier and PatchMaster software (HEKA Electronik). Micropipettes were generated from "Science Products GB200-F-8P with filament" pipettes using a vertical puller. Resistance varied between 5-7 MΩ. Bath solution contained in mM: 3 KCl, 118 NaCl, 25 NaHCO3, 2 CaCl2, 1 MgCl2, 10 HEPES (NaOH to pH 7.4). Pipette solution contained in mM: 90 K-gluconate, 10 NaCl, 10 KCl, 1 MgCl2, 10 EGTA, 60 HEPES (KOH to pH 7.3), and the holding potential was -60 mV. Illumination during electrophysiology and UV/Vis experiments was provided by a TILL Photonics Polychrome 5000 monochromator.
# Epac2A = test: Epac2-camps FRET imaging in HEK293t cells; type: cell-based; settings: HEK293t cells expressing full length Epac2-camps; JB253 as cis-JB253 (excitation 440 nm)
# Method: For EPAC2 imaging, HEK293t were transfected with the full length construct for […] containing the cAMP and sulfonylurea binding domains (obtained from Prof. […] Excitation was delivered at 440 nm and emitted signals captured using […] filters. FRET was calculated as the ratio of Cerulean (CFP):Venus (YFP) fluorescence. Signals were normalized using R/R0 where R is the ratio at a given timepoint and R0 is the minimum ratio.
# [1] = four dark/400 nm cycles, single cell, ± SEM
# [2] = λ 400 nm, 50 µM JB253, ± SD, n = 3 recordings
# [3] = λ 420 nm, 50 µM JB253, ± SD, n = 3 recordings
# [4] = λ 440 nm, 50 µM JB253, ± SD, n = 3 recordings
# [5] = λ 460 nm, 50 µM JB253, ± SD, n = 3 recordings
# [6] = λ 480 nm, 50 µM JB253, ± SD, n = 3 recordings
# [7] = λ 500 nm, 50 µM JB253, ± SD, n = 3 recordings
# T1 sequence (Q09429 whole entry): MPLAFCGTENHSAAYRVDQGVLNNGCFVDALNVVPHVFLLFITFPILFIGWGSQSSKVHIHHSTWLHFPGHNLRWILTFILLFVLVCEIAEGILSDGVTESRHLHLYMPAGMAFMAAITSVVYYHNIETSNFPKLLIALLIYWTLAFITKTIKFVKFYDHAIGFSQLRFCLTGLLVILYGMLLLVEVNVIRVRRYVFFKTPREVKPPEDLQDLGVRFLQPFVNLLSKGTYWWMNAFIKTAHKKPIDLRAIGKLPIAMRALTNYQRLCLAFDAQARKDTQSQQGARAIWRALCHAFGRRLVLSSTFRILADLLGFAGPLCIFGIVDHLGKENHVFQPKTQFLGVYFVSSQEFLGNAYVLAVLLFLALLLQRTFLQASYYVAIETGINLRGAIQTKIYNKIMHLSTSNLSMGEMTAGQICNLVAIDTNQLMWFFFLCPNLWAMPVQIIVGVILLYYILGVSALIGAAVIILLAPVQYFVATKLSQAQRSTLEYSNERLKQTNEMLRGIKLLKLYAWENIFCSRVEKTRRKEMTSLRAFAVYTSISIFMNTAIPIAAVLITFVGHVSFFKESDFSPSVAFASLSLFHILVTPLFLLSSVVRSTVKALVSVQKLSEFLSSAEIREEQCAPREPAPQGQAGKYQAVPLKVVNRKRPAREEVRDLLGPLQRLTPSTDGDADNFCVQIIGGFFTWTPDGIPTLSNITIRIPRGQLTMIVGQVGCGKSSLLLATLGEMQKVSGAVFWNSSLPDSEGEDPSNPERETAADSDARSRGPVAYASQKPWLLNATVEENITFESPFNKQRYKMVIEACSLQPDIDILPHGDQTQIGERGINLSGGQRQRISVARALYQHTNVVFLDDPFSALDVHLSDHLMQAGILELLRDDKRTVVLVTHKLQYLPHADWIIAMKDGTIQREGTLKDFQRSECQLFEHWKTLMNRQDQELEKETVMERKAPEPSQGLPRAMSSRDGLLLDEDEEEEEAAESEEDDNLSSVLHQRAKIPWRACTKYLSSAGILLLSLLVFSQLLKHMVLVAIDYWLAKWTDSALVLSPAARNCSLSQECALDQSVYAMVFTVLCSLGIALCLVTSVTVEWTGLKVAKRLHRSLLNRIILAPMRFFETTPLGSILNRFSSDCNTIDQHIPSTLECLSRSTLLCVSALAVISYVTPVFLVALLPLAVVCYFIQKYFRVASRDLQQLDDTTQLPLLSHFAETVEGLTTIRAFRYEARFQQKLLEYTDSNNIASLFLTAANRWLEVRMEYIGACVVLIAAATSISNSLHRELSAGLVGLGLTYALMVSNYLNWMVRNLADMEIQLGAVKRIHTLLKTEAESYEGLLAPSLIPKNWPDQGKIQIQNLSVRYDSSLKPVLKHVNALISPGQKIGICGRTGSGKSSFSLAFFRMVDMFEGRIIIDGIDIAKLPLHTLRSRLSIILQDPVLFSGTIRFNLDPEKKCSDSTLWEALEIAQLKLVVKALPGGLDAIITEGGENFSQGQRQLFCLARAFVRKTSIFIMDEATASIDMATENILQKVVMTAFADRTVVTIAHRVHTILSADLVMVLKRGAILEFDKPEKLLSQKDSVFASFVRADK
# T1 sequence (Q61743 whole entry partner): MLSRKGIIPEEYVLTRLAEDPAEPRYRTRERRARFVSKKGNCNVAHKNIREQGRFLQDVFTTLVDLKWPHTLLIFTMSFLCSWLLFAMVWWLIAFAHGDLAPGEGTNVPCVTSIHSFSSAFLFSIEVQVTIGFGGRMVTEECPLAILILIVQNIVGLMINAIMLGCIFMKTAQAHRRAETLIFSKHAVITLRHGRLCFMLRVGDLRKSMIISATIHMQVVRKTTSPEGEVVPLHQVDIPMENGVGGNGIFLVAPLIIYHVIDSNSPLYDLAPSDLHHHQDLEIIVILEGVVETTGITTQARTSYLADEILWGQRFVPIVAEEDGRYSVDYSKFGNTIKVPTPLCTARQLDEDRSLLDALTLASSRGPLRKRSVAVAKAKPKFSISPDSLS
smiles,measurement,setting,value
"CCN(CC)c1ccc(/N=N/c2ccc(S(=O)(=O)NC(=O)NC3CCCCC3)cc2)cc1 [JB253, (E)-N-(cyclohexylcarbamoyl)-4-((4-(diethylamino)phenyl)diazenyl)benzenesulfonamide]",insulin secreted following illumination,"isolated murine islets; 50 µM JB253, 5 mM glucose, 405 nm or 485 nm, 30 min",4-8 fold
same,insulin release in the dark versus control (5 mM glucose),"isolated murine islets; 50 µM JB253, dark, 30 min",similar
same,stimulation of insulin secretion compared with glimepiride,"isolated murine islets; 485 nm light, JB253 50 µM, glimepiride 50 µM",equipotent to glimepiride
same,"cytotoxicity to islets (necrosis indices, cell death versus DMSO-alone)",islets,did not appear to be cytotoxic
same,Difference (%) in current change between first and last switch,"KATP channels; experiment 1, 12 cycles",34.4%
same,ΔI [pA] first switch,"KATP channels; experiment 1, 12 cycles",136.5 pA
same,ΔI [pA] last switch,"KATP channels; experiment 1, 12 cycles",89.5 pA
same,Difference (%) in current change between first and last switch,"KATP channels; experiment 2, 9 cycles",3.4%
same,ΔI [pA] first switch,"KATP channels; experiment 2, 9 cycles",438.8 pA
same,ΔI [pA] last switch,"KATP channels; experiment 2, 9 cycles",423.8 pA
same,Difference (%) in current change between first and last switch,"KATP channels; experiment 3, 5 cycles",19.5%
same,ΔI [pA] first switch,"KATP channels; experiment 3, 5 cycles",200.0 pA
same,ΔI [pA] last switch,"KATP channels; experiment 3, 5 cycles",161.0 pA
same,Difference (%) in current change between first and last switch,"KATP channels; experiment 4, 4 cycles",2.1%
same,ΔI [pA] first switch,"KATP channels; experiment 4, 4 cycles",521 pA
same,ΔI [pA] last switch,"KATP channels; experiment 4, 4 cycles",510 pA
same,wavelength of maximal photoblock of KATP channels,KATP channels; HEK293t Kir6.2/SUR1,460 nm
same,photoswitching of K^+ currents at wavelengths > 560 nm,"KATP channels; HEK293t Kir6.2/SUR1, holding potential -60 mV, n = 3 recordings",unable to photoswitch
same,τon,KATP channels; block upon exposure to 400 nm,400 ms
same,K^+ current amplitude,"KATP channels; dark state, 50 µM JB253, a fraction of the effect of 500 µM tolbutamide",partly reduced
same,reversal potential,"KATP channels; dark, ± SEM",-90.0 ± 1.8 mV
same,ΔI,KATP channels; [1],504.8±6.9 pA
same,τoff,KATP channels; [1],1472 ± 75 ms
same,τon,KATP channels; [1],477 ± 26 ms
same,reversal potential,"KATP channels; illuminated, ± SEM",-87.8 ± 1.6 mV
same,block relative to that recorded using 500 µM tolbutamide,"KATP channels; illumination with wavelengths between 400-500 nm, 50 µM JB253",45-72%
same,difference in ΔI [pA] between first and last switch,"KATP channels; repeated dark/400 nm cycles, mean of all experiments",14.9 ± 7.6%
same,τoff,KATP channels; thermal relaxation after light source shut off (400 nm),1500 ms
same,ΔI,"KATP channels; λ 400 nm, 50 µM JB253, single representative experiment",216 pA
same,% block,"KATP channels; λ 400 nm, 50 µM JB253, ± SD",44.0±29.6%
same,τoff,KATP channels; [2],2758 ± 745 ms
same,τon,KATP channels; [2],1176 ± 385 ms
same,ΔI,"KATP channels; λ 420 nm, 50 µM JB253, single representative experiment",492 pA
same,% block,"KATP channels; λ 420 nm, 50 µM JB253, ± SD",69.4±51.1%
same,τoff,KATP channels; [3],2209 ± 482 ms
same,τon,KATP channels; [3],1309 ± 438 ms
same,ΔI,"KATP channels; λ 440 nm, 50 µM JB253, single representative experiment",440 pA
same,% block,"KATP channels; λ 440 nm, 50 µM JB253, ± SD",70.0±44.3%
same,τoff,KATP channels; [4],2295 ± 397 ms
same,τon,KATP channels; [4],1246 ± 421 ms
same,ΔI,"KATP channels; λ 460 nm, 50 µM JB253, single representative experiment",481 pA
same,% block,"KATP channels; λ 460 nm, 50 µM JB253, ± SD",72.8±48.1%
same,τoff,KATP channels; [5],1940 ± 322 ms
same,τon,KATP channels; [5],1181 ± 447 ms
same,ΔI,"KATP channels; λ 480 nm, 50 µM JB253, single representative experiment",487 pA
same,% block,"KATP channels; λ 480 nm, 50 µM JB253, ± SD",72.4±49.0%
same,τoff,KATP channels; [6],2183 ± 422 ms
same,τon,KATP channels; [6],1163 ± 434 ms
same,ΔI,"KATP channels; λ 500 nm, 50 µM JB253, single representative experiment",482 pA
same,% block,"KATP channels; λ 500 nm, 50 µM JB253, ± SD",70.2±49.5%
same,τoff,KATP channels; [7],2002 ± 354 ms
same,τon,KATP channels; [7],1244 ± 462 ms
same,ΔR/R0 (decrease in FRET),Epac2A,0.064 AU
